Where two headings read alike, the source gives them in different places.

The test system of data set [1] is human colon cancer cells (SW480). In words: CCK-8 tumor cell growth inhibition, SW480. Format: cell-based. Conditions: for IC50: Homo sapiens, SW480, 48 h co-incubation, CCK-8, read-out: IC50 against SW480; for activity against human colon cancer cells compared with the parent compound 1 (glycyrrhetinic acid): relative to parent compound 1. The procedure: (§1) Human hepatocellular carcinoma cells (HepG2) and human colon cancer cells (SW480) were cultured in a complete culture medium consisting of high-glucose DMEM supplemented with 10% (v/v) heat-inactivated fetal bovine serum, 100 U/mL of penicillin, and […] of streptomycin. All cells used in the experiments were cultured in an incubator at 37° C. with 5% CO2 saturated humidity.
(§2) All compounds were dissolved in DMSO to prepare 20 mM compound stock solutions. • 10 μL of the compound stock solution was added to 1 mL of the complete culture medium to prepare a 200 μM compound solution; • 4 μL of the compound stock solution was added to 1 mL of the complete culture medium to prepare a 80 μM compound solution; • 0.5 mL of the 80 μM compound solution was added to 0.5 mL of the complete culture medium to prepare a 40 μM compound solution; • 0.5 mL of the 40 μM compound solution was added to 0.5 mL of the complete culture medium to prepare a 20 μM compound solution; • 0.5 mL of the 20 μM compound solution was added to 0.5 mL of the complete culture medium to prepare a 10 μM compound solution; • 0.5 mL of the 10 μM compound solution was added to 0.5 mL of the complete culture medium to prepare a 5 μM compound solution;
(§3) The inhibitory effects of the compounds on tumor cell growth were evaluated using a CCK-8 assay. A cell suspension at a predetermined density (5× 10^4/mL cells/mL) was seeded into a 96-well plate. Outermost 36 wells of the 96-well plate were filled with 200 μL of PBS buffer (0.01 M, pH 7.4), while inner 60 wells thereof were used as a drug group, a blank group, and a negative control group. Each group was tested in triplicate.
(§4) Drug group: 100 μL of the cell suspension was added to each well and incubated for 24 h, and 100 μL of the 80 μM compound solution (100 μL of the 200 μM solution was added to Compound 1) was added for co-incubating for another 48 h; 20 μL of CCK-8 solution was added to each well, followed by incubation for another 2 h; and absorbance at 450 nm was measured with a microplate reader.
(§5) Blank group: 100 μL of the complete culture medium was added to each well and incubated for 24 h, and 100 μL of the complete culture medium was then added for co-incubating for another 48 h; 20 μL of CCK-8 solution was added to each well, followed by incubation for another 2 h; and absorbance at 450 nm was measured with a microplate reader.
(§6) Negative control group: 100 μL of the cell suspension was added to each well and incubated for 24 h, and 100 μL of the complete culture medium containing 0.4 μL of DMSO was then added for co-incubating for another 48 h; 20 μL of CCK-8 solution was added to each well, followed by incubation for another 2 h; and absorbance at 450 nm was measured with a microplate reader.
(§7) The cell growth inhibitory ratio (IR) was calculated according to the following formulas:
(§8) [formula] • IR: Inhibitory Ratio • ODpositive: absorbance of the drug group • ODblank: absorbance of the blank group • ODnegative: absorbance of the negative control group
(§9) Each concentration was tested in triplicate. Based on the tumor cell inhibitory ratios at different concentrations, the IC50 was calculated using GraphPad Prism 9.

Data set [2] concerns Human hepatocellular carcinoma cells (HepG2). In words: CCK-8 tumor cell growth inhibition, HepG2. The format is cell-based. Conditions: for IC50: Homo sapiens, HepG2, 48 h co-incubation, CCK-8, read-out: IC50 against HepG2. The procedure: as §1, §2, §3, §4, §5, §6, §7, §8, §9
Data set [3] deals with T1, CYP161H12 (Amycolatopsis pretoriensis, UniProt A0A1H5RFX8). In words: CYP161H12 catalytic activity on different substrates (cell-free CYP161H12-RHFRed/opt13 conversion, liquid chromatography). Conditions: role: substrate; 2 mM substrate, 0.5 equiv. NADP+, 50 equiv. Na2HPO3·5H2O, 5% DMSO, pH 7.0, 23° C., 20 h; enzyme 3.68×10^−3 mM.
T1 sequence (A0A1H5RFX8 1-404): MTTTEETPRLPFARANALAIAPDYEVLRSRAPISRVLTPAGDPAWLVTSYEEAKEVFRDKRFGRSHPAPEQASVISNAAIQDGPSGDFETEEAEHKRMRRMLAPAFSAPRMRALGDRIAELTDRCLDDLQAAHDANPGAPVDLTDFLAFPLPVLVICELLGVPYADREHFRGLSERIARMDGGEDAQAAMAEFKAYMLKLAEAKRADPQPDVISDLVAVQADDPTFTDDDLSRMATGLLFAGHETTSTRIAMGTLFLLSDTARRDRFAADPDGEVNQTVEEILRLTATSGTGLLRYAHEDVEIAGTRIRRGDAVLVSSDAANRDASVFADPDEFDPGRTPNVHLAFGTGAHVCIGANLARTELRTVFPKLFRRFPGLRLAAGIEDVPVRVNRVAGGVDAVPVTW
The target of data set [4] is T1, CYP161H12.

On to `C=CCCCCOC(=O)[C@@]1(C)CC[C@]2(C)CC[C@]3(C)C(=CC(=O)[C@@H]4[C@@]5(C)CC[C@H](O)C(C)(C)[C@@H]5C[C@H](O)[C@]43C)[C@@H]2C1` [Compound 10a], for which, in data set [1], the IC50 (usually the concentration at which inhibition is half-maximal) was 39.2 ± 2.34 µM and the “activity against human colon cancer cells compared with the parent compound 1 (glycyrrhetinic acid)” value is given as “more than twice the activity”. The IC50 in data set [2] is greater than 40 µM.
Take `CC(=O)O[C@H]1CC[C@]2(C)[C@H]3C(=O)C=C4[C@@H]5C[C@@](C)(C(=O)O)CC[C@]5(C)CC[C@@]4(C)[C@]3(C)[C@@H](O)C[C@H]2C1(C)C` [Compound 2a]: the IC50 in data set [1] and in data set [2] was greater than 40 µM each time.
As to `CCC(=O)O[C@H]1CC[C@]2(C)[C@H]3C(=O)C=C4[C@@H]5C[C@@](C)(C(=O)O)CC[C@]5(C)CC[C@@]4(C)[C@]3(C)CC[C@H]2C1(C)C` [Substrate 3, 3-propionyl-glycyrrhetinic acid], the “yield of Substrate catalyzed by CYP161H12” value (“yield of Substrate catalyzed” below) at CYP161H12 [3] is 61%.
Still for that read-out and setting: the value for `CC1(C)c2oncc2C[C@]2(C)[C@H]3C(=O)C=C4[C@H]5C[C@@](C)(C(=O)O)CC[C@]5(C)CC[C@@]4(C)[C@]3(C)CC[C@@H]12` [Substrate 8] was 97%.
In the case of `CC1(C)[C@@H](O)CC[C@]2(C)[C@H]3C(=O)C=C4[C@@H]5C[C@@](C)(C(=O)O)CC[C@]5(C)CC[C@@]4(C)[C@]3(C)CC[C@@H]12` [Compound 1, glycyrrhetinic acid], the “yield of Substrate catalyzed” value on CYP161H12 [3] came out at 100%. The concentration for half-maximal inhibition (IC50) in data set [1] and in data set [2] was greater than 100 µM each time.
`CC1(C)C(=O)CC[C@]2(C)[C@H]3C(=O)C=C4[C@@H]5C[C@@](C)(C(=O)O)CC[C@]5(C)CC[C@@]4(C)[C@]3(C)[C@@H](O)C[C@@H]12` [Compound 5a]: the IC50 in data set [1] and in data set [2] was greater than 40 µM each time.
For the compound `CC1(C)c2oncc2C[C@]2(C)[C@H]3C(=O)C=C4[C@@H]5C[C@@](C)(C(=O)O)CC[C@]5(C)C[C@H](O)[C@@]4(C)[C@]3(C)[C@@H](O)C[C@@H]12` [Compound 8b], the concentration for half-maximal inhibition (IC50) in data set [1] and in data set [2] was greater than 40 µM each time.
In the case of `CC1(C)C(=O)CC[C@]2(C)[C@H]3C(=O)C=C4[C@@H]5C[C@@](C)(C(=O)O)CC[C@]5(C)C[C@H](O)[C@@]4(C)[C@]3(C)[C@@H](O)C[C@@H]12` [Compound 5b], the IC50 in data set [1] and in data set [2] was greater than 40 µM throughout.
As to `CC1(C)OC(=O)CC[C@]2(C)[C@H]3C(=O)C=C4[C@@H]5C[C@@](C)(C(=O)O)CC[C@]5(C)C[C@H](O)[C@@]4(C)[C@]3(C)[C@@H](O)C[C@@H]12` [Compound 7b], the IC50 in data set [1] and in data set [2] was greater than 40 µM in each case.
For `CCCC(=O)O[C@H]1CC[C@]2(C)[C@H]3C(=O)C=C4[C@@H]5C[C@@](C)(C(=O)O)CC[C@]5(C)CC[C@@]4(C)[C@]3(C)[C@@H](O)C[C@H]2C1(C)C` [Compound 4a], the IC50 in data set [1] and in data set [2] was greater than 40 µM each time.
`CC1(C)[C@@H](O)CC[C@]2(C)[C@H]3C(=O)C=C4[C@@H]5C[C@@](C)(C(=O)O)CC[C@]5(C)C[C@H](O)[C@@]4(C)[C@]3(C)[C@@H](O)C[C@@H]12` [Compound 1b]: the IC50 in data set [1] and in data set [2] was greater than 40 µM in each case.
Consider `CC(=O)O[C@H]1CC[C@]2(C)[C@H]3C(=O)C=C4[C@@H]5C[C@@](C)(C(=O)O)CC[C@]5(C)C[C@H](O)[C@@]4(C)[C@]3(C)[C@@H](O)C[C@H]2C1(C)C` [Compound 2b], for which the IC50 in data set [1] and in data set [2] was greater than 40 µM throughout.
For the compound `COC(=O)[C@@]1(C)CC[C@]2(C)C[C@H](O)[C@]3(C)C(=CC(=O)[C@@H]4[C@@]5(C)CC[C@H](O)C(C)(C)[C@@H]5C[C@H](O)[C@]43C)[C@@H]2C1` [Compound 9b], the IC50 in data set [1] and in data set [2] was greater than 40 µM in each case.
With `CC1(C)C(=O)C=C[C@]2(C)[C@H]3C(=O)C=C4[C@@H]5C[C@@](C)(C(=O)O)CC[C@]5(C)CC[C@@]4(C)[C@]3(C)CC[C@@H]12` [Substrate 6, 3-oxo-1-ene-glycyrrhetinic acid], the “yield of Substrate catalyzed” value on CYP161H12 [3] came to 81%.
Take `CC1(C)OC(=O)CC[C@]2(C)[C@H]3C(=O)C=C4[C@@H]5C[C@@](C)(C(=O)O)CC[C@]5(C)CC[C@@]4(C)[C@]3(C)[C@@H](O)C[C@@H]12` [Compound 7a]: the IC50 in data set [1] and in data set [2] was greater than 40 µM in each case.
Take `CC1(C)C(=O)CC[C@]2(C)[C@H]3C(=O)C=C4[C@@H]5C[C@@](C)(C(=O)O)CC[C@]5(C)CC[C@@]4(C)[C@]3(C)CC[C@@H]12` [Substrate 5, 3-oxo-glycyrrhetinic acid]: the “ratio of hydroxylated products a:b” value on CYP161H12 [4] is 76:24. The “yield of Substrate catalyzed” value at CYP161H12 [4] (pH 7) came out at 87%.
As for `C=CCCCCOC(=O)[C@@]1(C)CC[C@]2(C)C[C@H](O)[C@]3(C)C(=CC(=O)[C@@H]4[C@@]5(C)CC[C@H](O)C(C)(C)[C@@H]5C[C@H](O)[C@]43C)[C@@H]2C1` [Compound 10b], in data set [1], the half-maximal inhibitory concentration (IC50) came out at 32 ± 3.36 µM and the “activity against human colon cancer cells compared with the parent compound 1 (glycyrrhetinic acid)” value is given as “more than twice the activity”. Also, the half-inhibitory concentration (IC50) in data set [2] is 38.6 ± 0.54 µM. In addition, the “activity against human liver cancer cells compared with the parent compound 1 (glycyrrhetinic acid)” value in data set [2] (relative to parent compound 1) is reported as “more than twice the activity”.
Regarding `CCCC(=O)O[C@H]1CC[C@]2(C)[C@H]3C(=O)C=C4[C@@H]5C[C@@](C)(C(=O)O)CC[C@]5(C)CC[C@@]4(C)[C@]3(C)CC[C@H]2C1(C)C` [Substrate 4, 3-butyryl-glycyrrhetinic acid], the “yield of Substrate catalyzed” value at CYP161H12 [3] came to 23%.
`CC1(C)OC(=O)CC[C@]2(C)[C@H]3C(=O)C=C4[C@@H]5C[C@@](C)(C(=O)O)CC[C@]5(C)CC[C@@]4(C)[C@]3(C)CC[C@@H]12` [Substrate 7]: at CYP161H12 [3], the “yield of Substrate catalyzed” value was 87%.
For the compound `CC1(C)c2oncc2C[C@]2(C)[C@H]3C(=O)C=C4[C@@H]5C[C@@](C)(C(=O)O)CC[C@]5(C)CC[C@@]4(C)[C@]3(C)[C@@H](O)C[C@@H]12` [Compound 8a], the IC50 in data set [1] and in data set [2] was greater than 40 µM each time.
Consider `CC1(C)[C@@H](O)CC[C@]2(C)[C@H]3C(=O)C=C4[C@@H]5C[C@@](C)(C(=O)O)CC[C@]5(C)CC[C@@]4(C)[C@]3(C)[C@@H](O)C[C@@H]12` [Compound 1a], for which the IC50 in data set [1] and in data set [2] was greater than 40 µM throughout.
Take `CC1(C)C(=O)C=C[C@]2(C)[C@H]3C(=O)C=C4[C@@H]5C[C@@](C)(C(=O)O)CC[C@]5(C)CC[C@@]4(C)[C@]3(C)[C@@H](O)C[C@@H]12` [Compound 6a]: the IC50 in data set [1] and in data set [2] was greater than 40 µM in each case.
As for `CC(=O)O[C@H]1CC[C@]2(C)[C@H]3C(=O)C=C4[C@@H]5C[C@@](C)(C(=O)O)CC[C@]5(C)CC[C@@]4(C)[C@]3(C)CC[C@H]2C1(C)C` [Substrate 2, 3-acetyl-glycyrrhetinic acid], the “yield of Substrate catalyzed” value at CYP161H12 [3] stood at 92%.
`COC(=O)[C@@]1(C)CC[C@]2(C)CCC3(C)C(=CC(=O)[C@@H]4[C@@]5(C)CC[C@H](O)C(C)(C)[C@@H]5C[C@H](O)[C@]43C)[C@@H]2C1` (some centres unmarked) [Compound 9a]: the 50% inhibitory concentration (IC50) in data set [1] and in data set [2] was greater than 40 µM throughout.
Turning to `CCC(=O)O[C@H]1CC[C@]2(C)[C@H]3C(=O)C=C4[C@@H]5C[C@@](C)(C(=O)O)CC[C@]5(C)CC[C@@]4(C)[C@]3(C)[C@@H](O)C[C@H]2C1(C)C` [Compound 3a], the IC50 in data set [1] and in data set [2] was greater than 40 µM each time.
In the case of `CC1(C)C(=O)C=C[C@]2(C)[C@H]3C(=O)C=C4[C@@H]5C[C@@](C)(C(=O)O)CC[C@]5(C)C[C@H](O)[C@@]4(C)[C@]3(C)[C@@H](O)C[C@@H]12` [Compound 6b], the IC50 in data set [1] and in data set [2] was greater than 40 µM each time.

Source of the values: US20260337583A1, “CYTOCHROME P450 ENZYME, NUCLEIC ACID MOLECULE, AND GLYCYRRHETINIC ACID DERIVATIVE AND USE THEREOF” (CHINA PHARMACEUTICAL UNIVERSITY, priority 2023, published 2026).
